Laboratory results: ChEMBL document CHEMBL1201862, “PubChem BioAssay data set” (2004)
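Briefly, cells in 96-well plates were exposed to five compound concentrations for 48 h, and endpoints were estimated by linear interpolation. GI50 is the concentration that inhibits growth by half.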 Calls of active or inactive are those of the source. No stated cut-off is given here; in the data, active = GI50 up to about 1.1 µM and inactive = higher.

Legend:
Assay in all cases: DTP human tumour cell line panel, 48 h
[1] = system: MDA-N
[2] = system: SF-295
[3] = system: M14
[4] = system: SK-MEL-5
[5] = system: Malme-3M
[6] = system: A498
[7] = system: NCI-H226
[8] = system: CAKI-1
[9] = system: LOX IMVI
[10] = system: SK-MEL-28
[11] = system: OVCAR-4
[12] = system: T47D
[13] = system: MOLT-4
[14] = system: PC-3
[15] = system: UACC-62
[16] = system: HCC 2998
[17] = system: SF-268
[18] = system: 786-0
[19] = system: UACC-257
[20] = system: MDA-MB-231

Measured: GI50

Cc1[nH]c(=O)nc(S)c1C(=O)Nc1cccc2cc3ccccc3cc12
inactive: [1] > 10 µM | [2] > 100 µM | [3] > 100 µM | [4] > 100 µM | [5] > 100 µM | [6] > 100 µM | [7] > 100 µM | [8] > 100 µM | [9] > 100 µM | [10] > 100 µM | [11] > 100 µM | [12] > 100 µM | [13] > 100 µM | [14] > 100 µM | [15] > 100 µM | [16] > 100 µM | [17] > 100 µM

CC1=C(C(=O)NNC(=O)CC#N)CC(C(=O)NNC(=O)CC#N)=C(C)N1
inactive: [18] > 100 µM | [1] > 100 µM | [2] > 100 µM | [3] > 100 µM | [4] > 100 µM | [6] > 100 µM | [7] > 100 µM | [8] > 100 µM | [9] > 100 µM | [19] > 100 µM | [10] > 100 µM | [11] > 100 µM | [12] 93.3 µM | [13] > 100 µM | [20] > 100 µM | [16] > 100 µM | [17] > 100 µM

N#Cc1c(N)oc(-c2cccc([N+](=O)[O-])c2)c1C#N
inactive: [18] 27.7 µM | [2] > 100 µM | [3] 46.9 µM | [4] 19.6 µM | [5] 24.4 µM | [6] 21 µM | [7] 43.2 µM | [8] 20.7 µM | [9] 31.6 µM | [19] 21.8 µM | [10] 19.5 µM | [12] 50 µM | [14] 62.8 µM | [15] 30 µM | [20] 37.1 µM | [16] 19.5 µM | [17] 31.4 µM

CC1=C(/C=C/C(=O)O)C(C)(C)CCC1
inactive: [18] > 100 µM | [1] > 100 µM | [2] > 100 µM | [3] > 100 µM | [4] > 100 µM | [5] > 100 µM | [6] > 100 µM | [7] > 100 µM | [8] > 100 µM | [9] > 100 µM | [19] > 100 µM | [10] > 100 µM | [11] > 100 µM | [14] > 100 µM | [15] > 100 µM | [20] > 100 µM | [16] > 100 µM | [17] > 100 µM

CON(C(=O)OC(C)(C)C)c1ccccc1
inactive: [18] > 100 µM | [2] > 100 µM | [3] > 100 µM | [4] > 100 µM | [5] > 100 µM | [6] > 100 µM | [7] > 100 µM | [8] > 100 µM | [9] > 100 µM | [19] > 100 µM | [10] > 100 µM | [11] > 100 µM | [12] > 100 µM | [13] > 100 µM | [14] > 100 µM | [15] > 100 µM | [20] > 100 µM | [16] > 100 µM | [17] > 100 µM

N#CCCC1(CCC#N)S(=O)(=O)OCCOS1(=O)=O
inactive: [18] 21.6 µM | [1] 54.3 µM | [2] 8.99 µM | [3] 56.8 µM | [4] 47.9 µM | [5] 46.1 µM | [7] 41.5 µM | [8] 40.6 µM | [9] 18.3 µM | [19] > 100 µM | [10] 50 µM | [11] 20.7 µM | [12] 43.8 µM | [13] 24.7 µM | [14] 63.4 µM | [15] 9.4 µM | [17] 32.9 µM

CCn1nc(C)c2c1C(=O)NC(C)C(=O)N2 (stereo unspecified)
inactive: [1] > 100 µM | [2] > 100 µM | [3] > 100 µM | [4] > 100 µM | [6] > 100 µM | [8] > 100 µM | [19] > 100 µM | [10] > 100 µM | [11] > 100 µM | [14] > 100 µM | [15] > 100 µM | [17] > 100 µM

CC(Nc1cc(Cl)cc(Cl)c1)c1ccncc1 (stereo unspecified)
inactive: [18] 26.2 µM | [1] 21.3 µM | [2] 18.5 µM | [3] 17.6 µM | [4] 15.4 µM | [5] 27.7 µM | [6] 23.3 µM | [7] 11.5 µM | [8] 17.2 µM | [9] 10.9 µM | [19] 22.8 µM | [10] 30.6 µM | [11] 38.9 µM | [12] 7.85 µM | [13] 13.9 µM | [14] 12.1 µM | [16] 16.8 µM | [17] 17.9 µM

Cc1nc2ccc(Br)cc2c(=O)n1-c1ccc(N)cc1
inactive: [18] > 100 µM | [1] > 100 µM | [2] > 100 µM | [3] > 100 µM | [4] > 100 µM | [5] > 100 µM | [6] > 100 µM | [7] > 100 µM | [8] > 100 µM | [9] > 100 µM | [19] > 100 µM | [10] > 100 µM | [11] > 100 µM | [13] > 100 µM | [14] > 100 µM | [15] > 100 µM | [20] > 100 µM | [16] > 100 µM | [17] > 100 µM

O=C1OC[C@@H]2Cc3cc4c(cc3[C@H](c3ccc5c(c3)OCO5)[C@@H]12)OCO4
inactive: [18] > 25 µM | [1] 12 µM | [2] 24.7 µM | [3] > 25 µM | [4] 16 µM | [5] > 25 µM | [8] > 25 µM | [9] > 25 µM | [19] > 25 µM | [10] > 25 µM | [11] 13.9 µM | [13] 4.11 µM | [20] 22.7 µM | [16] > 25 µM

COC(=O)Cc1cc2c(cc1C(=O)c1ccc(N)cc1)OCO2
inactive: [18] 5.58 µM | [3] 1.64 µM | [5] > 100 µM | [7] 22.2 µM | [8] 3.48 µM | [9] 5.45 µM | [10] 3.36 µM | [11] 11.2 µM | [13] 1.63 µM | [14] 1.73 µM | [20] 3.42 µM | [17] 2.62 µM
active: [1] 0.19 µM | [2] 1.12 µM | [4] 0.435 µM | [15] 1.11 µM | [16] 0.78 µM

CCOC(=O)/C(=C\NC(C)(C)CO)c1nc2ccccc2[nH]1
inactive: [18] > 100 µM | [1] > 100 µM | [2] 64.6 µM | [3] > 100 µM | [4] 26.7 µM | [5] > 100 µM | [6] 54.6 µM | [8] > 100 µM | [9] > 100 µM | [19] > 100 µM | [10] 77.8 µM | [11] 94 µM | [13] 43.3 µM | [15] 43.5 µM | [16] 46.2 µM | [17] 81.5 µM
